Columns and labels:
[1] = system: thoracic aorta ring of Wistar rats; assay: Endothelium-dependent vasodilator response of thoracic aorta ring of L-NAME-treated rats (Magnus apparatus); assay type: in vivo, rat; details: for Degree of vasodilation compared to the group given only L-NAME (in words): given together with L-NAME in drinking water for one week
Protocol: Wistar rats (7 weeks of age, male) as the test animals were acclimatized for one week. A nitric oxide synthesis inhibitor, NG-nitro-L-arginine methyl ester hydrochloride (L-NAME, manufactured by SIGMA-ALDRICH CORP.) was dissolved in drinking water at the concentration of 1 g/L, and similarly, L-NAME and Val-Pro-Pro synthesized above at 1 g/L and 0.3 g/L, respectively, and L-NAME and Ile-Pro-Pro synthesized above at 1 g/L and 0.3 g/L, respectively. The rats were allowed free access to the prepared drinking water for one week. As a control, only the drinking water without L-NAME dissolved therein was given to a non-treatment group.
Then, the rats were subjected to fatal exsanguination under diethyl ether anesthesia. The thoracic aorta was taken out, cut into 2 mm long, and made into an aorta ring. The ring was set in a Magnus apparatus (product name “micro tissue organ bath MTOB-1Z”, manufactured by LABO SUPPORT CO., LTD.) filled with 5 ml of Tyrode's solution (composition: 158.3 mM of NaCl, 4.0 mM of KCl, 2.0 mM of CaCl2, 1.05 mM of MaCl2, 0.42 mM of NaH2PO4, 10.0 mM of NaHCO3, and 5.6 mM of glucose; pH 7.4, 37±0.5° C.), and allowed to equilibrate with the resting tension of 2.0 g. The aorta ring was then allowed to constrict with 1 μM of phenylephrine
The degree of vasodilation by the response was determined as a ratio to the constriction with 1 μM of phenylephrine. In the Table, each value is an average of each group of 8 animals.
In the Table, each value is an average of each group of 9 animals.

[2] = system: arteriosclerosis; details: administration; Non-patent Publication 5; cited from earlier work
[3] = system: ApoE knockout mice; assay: Confirmatory test for effect of inhibiting vascular intimal thickening (Elastica-van Gieson stain, intima/media area ratio); assay type: in vivo, mouse; details: 31 weeks; for Inhibition of vascular intimal thickening (in words): Example 2-2, Feeds 1 to 6 versus control; for Degree of Intimal Thickening: intima/media area ratio
Protocol: ApoE knockout mice (6 weeks of age, male, 8 animals for each group) were allowed free access to Feeds 1 to 7 as shown in Table 6 for 31 weeks. Then the thoracic aorta of the mice was taken out, fixed in 10% neutral buffered formalin, and subjected to the Elastica-van Gieson stain. Micrographs of the tissue specimens were scanned into the computer, and the degree of vascular intimal thickening (intima/media area ratio (%)) was calculated using an image processing software (Image J). The values of the degree of thickening shown in the table are the averages of each group.
The confirmatory test for the effect of inhibiting vascular intimal thickening was conducted on each of the solid feeds thus produced in the same way as in Example 2-2, and the degree of intimal thickening (intimal/media area ratio (%)) was calculated. The values of the degree of intimal thickening in the table are the averages of each group.

## COC(=O)[C@@H](N)CCCN=C(N)N[N+](=O)[O-].Cl [L-NAME, NG-nitro-L-arginine methyl ester hydrochloride, reference compound]
[1]; 10 μM acetylcholine, ratio to constriction with 1 μM phenylephrine, drinking water one week: L-NAME 1 g/L, peptide 0.3 g/L, enalapril 0.5 mg/L
  Degree of vasodilation: 26.1%

## CCOC(=O)[C@H](CCc1ccccc1)N[C@@H](C)C(=O)N1CCC[C@H]1C(=O)O [enalapril, reference compound]
[1]
  Degree of vasodilation compared to the group given only L-NAME (in words): no significant difference
[2]
  Arteriosclerosis inhibitory effect: does not result in an arteriosclerosis inhibitory effect

## Ile-Pro-Pro
[3]
  Inhibition of vascular intimal thickening (in words): inhibited vascular intimal thickening concentration-dependently
[3]; Feed 3: 0.0017 wt % in feed (Ile-Pro-Pro 17.1 mg/kg feed)
  Degree of Intimal Thickening: 25.3%
[3]; Feed 4: 0.0170 wt % in feed (Ile-Pro-Pro 171.0 mg/kg feed)
  Degree of Intimal Thickening: 20.5%
[1]
  Degree of vasodilation compared to the group given only L-NAME (in words): significantly higher

## Val-Pro-Pro
[3]
  Inhibition of vascular intimal thickening (in words): inhibited vascular intimal thickening concentration-dependently
[3]; Feed 1: 0.0034 wt % in feed (Val-Pro-Pro 34.1 mg/kg feed)
  Degree of Intimal Thickening: 21.8%
[3]; Feed 2: 0.0340 wt % in feed (Val-Pro-Pro 341.0 mg/kg feed)
  Degree of Intimal Thickening: 18.7%
[1]
  Degree of vasodilation compared to the group given only L-NAME (in words): significantly higher

— US20150307549A1, “AGENT FOR PREVENTING ARTERIOSCLEROSIS, AGENT FOR SUPPRESSING VASCULAR INTIMAL THICKENING AND AGENT FOR IMPROVING VASCULAR ENDOTHELIAL FUNCTION” (CALPIS Co., LTD, priority 2006, published 2015)
